This note sets out measurements from patent US12097188B2, “Compositions and methods for the treatment of macular degeneration” (Aldeyra Therapeutics, Inc., priority 2009, dated 2024).

Like-named read-outs stand apart in the source and are kept apart here.

Data set [1] deals with visual cycle. The experiment in a line: Functional biological activity in the retina: visual cycle inhibition / dark adaptation rate by ERG. The note with it: for effect on normal function of the retina: mouse, in vivo.
Excerpt: (§2) The protocol for measuring DA rates by ERG is based on the kinetics of functional visual recovery from photo-bleaching of visual pigment by brief exposure to extremely bright light.
(§3) A retinoid useful for this purpose is 13-cis-retinoic acid (RA, also known as isotretinoin).
Data set [2] deals with A2E formation. The experiment in a line: A2E formation in the abcr -/- mouse after repeated IP dosing. The class given is in vivo. To be noted: 10 mg/kg IP, repeated daily for 56 days, p<0.01. From the text: (§1) The target tissue, for the biological activity of compounds which reversibly react with RAL, e.g. Compounds A, B and C, is the outer segment of retinal photoreceptor cells.

Data set [3] is described as follows: in vivo. On the set-up: species or system C57BL/6 mice. The note with it: ip, 10 mg/kg.
Excerpt: as §1

The nature of data set [4]: Ocular levels of 14C-Compound A in the retina and RPE of rabbits (LSC). The class given is in vivo, Dutch belted rabbits. To be noted: for Amount of 14C-compound A in retina and RPE at tmax: rabbit, single 40 μL TO eyedrop, mean of 6 eyes. Here is the method: Dutch belted rabbits were dosed TO with a single 40 μL eyedrop containing either 0.50%, 0.15% or 0.05% weight/volume ^14C-Compound A in 20%, 6% or 2% weight/volume, respectively, β-cyclodextrin sulfobutylether sodium salt in phosphate-buffered saline (Table 1). At different times after dosing the eyes of the rabbits were enucleated, dissected and the amount of ^14C-Compound A in the retina and RPE together was measured by LSC. Each value represents the mean value from 6 eyes.

Data set [5] relates to visual cycle. To be noted: mouse, in vivo.
Excerpt: as §2, §3

With `CC(C)(O)c1cc2nc(-c3ccccc3)oc2cc1N` [B], the “effect on normal function of the retina” value in data set [1] is “do not alter the normal function of the retina”.

`CC(C)(O)c1cc2oc(-c3ccccc3)nc2cc1N` [C]: the “effect on normal function of the retina” value in data set [1] is given as “do not alter the normal function of the retina”.

With `CC(C)(O)c1nc2ccc(Cl)cc2cc1N` [Compound A], the “reduction of A2E formation” value in data set [2] is 71%. For the same compound, the peak level in data set [3] (C57BL/6, mouse) (Cmax) was 14400 ng/g. Further, in data set [3] (mouse), the “Tmax in the posterior eyecup” value is reported as “Thirty”. Further, the “Amount of 14C-compound A in retina and RPE at tmax” value (“Amount … at tmax” below) in data set [4] (0.05% w/v in 2% w/v βCSSA) worked out at 23.1 ng/g. Also, the “Amount … at tmax” value in data set [4] (0.15% w/v in 6% w/v βCSSA) is listed as 47.0 ng/g. Besides, the “Amount … at tmax” value in data set [4] (0.50% w/v in 20% w/v βCSSA) was 131 ng/g. Besides, in data set [4] (within one hour of TO dosing), the “amounts found in rabbit retina/RPE” value is on record as “Significant amounts”. In data set [5], the “effect on normal function of the retina” value is “do not alter the normal function of the retina”, the “effect on rate of dark adaptation (DA)” value is “nor does it slow the rate of dark adaptation” and the “inhibition of the visual cycle” value is recorded as “does not inhibit the visual cycle”.

`CC1=C(/C=C/C(C)=C/C=C/C(C)=C\C(=O)O)C(C)(C)CCC1` [RA, 13-cis-retinoic acid, reference compound]: the visual cycle inhibition entry in data set [1] (mice, IP 20 mg/kg (FIG. 3)) is on record as “show visual cycle inhibition”. In addition, the “inhibition of dark adaptation (DA)” value in data set [1] (mice, TO one or two 30 μL eyedrops, 0.2% w/v RA in 20% w/v β-cyclodextrin sulfobutylether sodium salt in PBS (FIG. 3)) is “dose-responsive inhibition of DA similar to that observed after IP dosing”.
